Laboratory results reported in patent publication US10392398B2, “Inhibitors of Late SV40 Factor (LSF) as cancer chemotherapeutics” (TRUSTEES OF BOSTON UNIVERSITY, priority 2010, dated 2019).

Assays:
[1] = test system: HeLa cells; experiment: Cell proliferation assay (MTS), HeLa; format: cell-based; settings: Homo sapiens
Procedure: Cells were plated at 3×10^4 cells/mL, A549 and HeLa, and 1×10^4 cells/mL, NIH/3T3, in 96-well plates and incubated for 24 h to allow for cell adhesion. LSF-library compounds were dissolved in DMSO, serial diluted in appropriate medium and added to cells in triplicate (2 plates). DMSO was added to control wells at a final concentration of 1%. After 72 h incubation in the presence of compound, confluent cells were assayed for growth proliferation with CellTiter 96® AQueous One Solution Cell Proliferation Assay (MTS) (Promega) according to the manufacturer's protocol. Plates were read at 490 nm on a microplate reader, and IC50 values were determined as the percentage of compound-treated cell growth to control cell growth. HCC cells—one hour after plating HCC cells onto 96-well plates, compound or vehicle (DMSO) was added to the desired concentrations, keeping DMSO at 0.5%. At indicated time points, cell viability was assayed using the CellTiter 96® Non-Radioactive Cell Proliferation Assay (MTT) (Promega).

[2] = biological target: T1, LSF (Homo sapiens, UniProt Q12800); experiment: Chromatin immunoprecipitation of myc-LSF-HA binding to the endogenous POLA1 promoter; format: cell-based; set-up: expressed in transfected cells; settings: human cell line
T1 sequence (Q12800 1-502): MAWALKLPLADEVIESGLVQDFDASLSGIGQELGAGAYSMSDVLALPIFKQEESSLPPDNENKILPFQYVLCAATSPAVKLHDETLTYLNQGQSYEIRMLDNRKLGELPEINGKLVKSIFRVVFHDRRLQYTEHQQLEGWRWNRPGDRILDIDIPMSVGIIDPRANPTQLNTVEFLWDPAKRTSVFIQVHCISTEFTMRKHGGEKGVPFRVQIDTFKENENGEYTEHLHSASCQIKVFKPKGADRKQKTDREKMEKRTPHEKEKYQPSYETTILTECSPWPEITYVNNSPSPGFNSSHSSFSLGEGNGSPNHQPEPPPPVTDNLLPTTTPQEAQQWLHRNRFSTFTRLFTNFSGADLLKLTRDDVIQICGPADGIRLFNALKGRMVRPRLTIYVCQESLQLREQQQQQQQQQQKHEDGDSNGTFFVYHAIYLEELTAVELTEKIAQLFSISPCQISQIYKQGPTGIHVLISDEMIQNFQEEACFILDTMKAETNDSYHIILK
Procedure: (§1) USF-dependent reporter assays were performed with FQI1 only. Averages with standard deviation (SD) derive from 3-4 independent experiments. […] “−LSF”: translation extract with no programmed LSF. […] Myc-LSF-HA expression was induced with the small molecule inducer RSL1. In induced cells, FQI1 or vehicle was added for the final 12 h of myc-LSF-HA induction.

[3] = test system: QGY-7703-derived tumors; experiment: Subcutaneous xenograft model of HCC in mice; format: in vivo; settings: for growth of hepatocellular carcinoma in vivo: intraperitoneally once every 3 days, about 1.0-2.0 mg/kg
Text: The inventors, in collaboration with other scientists performed in vivo experiments in a subcutaneous xenograft model, where mice with small QGY-7703-derived tumors were given multiple, spaced intraperitoneal injections of FQI1 (Formula IV) over a 2 week period, followed by an additional 2-weeks prior to analysis. […] However, expression of osteopontin, whose gene is activated directly by LSF^8, was abolished by FQI1 treatment, as was expression of Ki-67, indicative of the replicative capacity of the tumors (data not shown). […] In contrast to the dramatic effects on tumor growth, no general toxicity was evident in the inhibitor-treated animals, as assayed by lack of changes in body weight, feeding, grooming, posture, and general behavior, as well as hematoxylin and eosin staining of multiple tissues (data not shown), and levels of liver enzymes and protein in the blood (data not shown).

[4] = test system: USF; experiment: USF-dependent reporter assay; format: cell-based
Procedure: as §1

With `CCOc1ccccc1C1CC(=O)Nc2cc3c(cc21)OCO3` (racemic) [FQI1, 8-(2-ethoxyphenyl)-7,8-dihydro-[1,3]dioxolo[4,5-g]quinolin-6(5H)-one] the IC50 ([1]; HeLa, Example 7, FIG. 8, read-out: growth inhibition of HeLa Cell Line IC50) was 790 ± 35 nM, the GI50 ([1]; 72 h, MTS) was 0.79 µM and the “binding of inducible HA-tagged LSF to the POLA1 promoter (ChIP)” value [2] was “efficiently blocked”. The “suppression of growth of HCC tumor size” value ([3]; about 1.0-2.0 mg/kg once every 3 days, versus untreated mice, data not shown) was 65-80%, the “general toxicity in inhibitor-treated animals” value ([3]; body weight, feeding, grooming, posture, behavior, H&E of tissues) was “not evident” and the “expression of Ki-67 in endpoint tumors” value ([3]; immunofluorescence) was “abolished”. For the same compound, the “expression of osteopontin in endpoint tumors” value ([3]; immunofluorescence) was “abolished”, the “tumor growth in mouse xenograft” value ([3]; in words) was “remarkable decrease in tumor growth” and the “growth of hepatocellular carcinoma in vivo” value ([3]; in words, listed as formula (IV)) was “prevented or delayed the growth of hepatocellular carcinoma”. For the same compound, the “growth of hepatocellular carcinoma in vivo” value ([3]; in words, listed as formula IV) was “effective at abrogating the growth of hepatocellular carcinoma in vivo”, the “reduction of HCC tumor volume” value ([3]; mouse model, data not shown) was “about 80%” and the “decrease in endpoint tumor volumes” value ([3]; multiple intraperitoneal injections over 2 weeks, analysis 2 weeks later, data not shown) was roughly 9 fold. The “transactivation of a USF-dependent reporter by USF” value [4] was “unaffected”.
